Test results: ChEMBL document CHEMBL3044764, “Synthesis and herbicidal activities of 2-cyano-3-benzylaminoacrylates containing thiazole moiety” (2010)

Legend:
[1] = target: Photosystem II protein D1 (Spinacia oleracea) (UniProt P69560); assay: Inhibition of photosystem II in Spinacia oleracea (spinach) chloroplast assessed as inhibition of hill reaction at 1 ug/ml relative to control
Medicago sativa [2] = assay: Pre-emergence herbicidal activity against Medicago sativa (alfalfa) at 1500 g/ha after 10 days; type: functional
Brassica napus [3] = assay: Pre-emergence herbicidal activity against Brassica napus (oilseed rape) at 1500 g/ha after 10 days; type: functional
Amaranthus retroflexus [4] = assay: Pre-emergence herbicidal activity against Amaranthus retroflexus at 1500 g/ha after 10 days; type: functional
Brassica napus [5] = assay: Post-emergence herbicidal activity against Brassica napus (oilseed rape) at 1500 g/ha after 10 days; type: functional
Amaranthus retroflexus [6] = assay: Post-emergence herbicidal activity against Amaranthus retroflexus at 1500 g/ha after 10 days; type: functional
Medicago sativa [7] = assay: Post-emergence herbicidal activity against Medicago sativa (alfalfa) at 1500 g/ha after 10 days; type: functional
Amaranthus retroflexus [8] = assay: Post-emergence herbicidal activity against Amaranthus retroflexus at 375 g/ha after 10 days; type: functional
Brassica napus [9] = assay: Post-emergence herbicidal activity against Brassica napus (oilseed rape) at 375 g/ha after 10 days; type: functional
Brassica napus [10] = assay: Post-emergence herbicidal activity against Brassica napus (oilseed rape) after 10 days; type: functional
Amaranthus retroflexus [11] = assay: Post-emergence herbicidal activity against Amaranthus retroflexus at 750 g/ha after 10 days; type: functional
Brassica napus [12] = assay: Post-emergence herbicidal activity against Brassica napus (oilseed rape) at 750 g/ha after 10 days; type: functional

Compound	inhibition [1] [%]	Activity (Medicago sativa [2]) [%]	Activity (Brassica napus [3]) [%]	Activity (Amaranthus retroflexus [4]) [%]	Activity (Brassica napus [5]) [%]	Activity (Amaranthus retroflexus [6]) [%]	Activity (Medicago sativa [7]) [%]	Activity (Amaranthus retroflexus [8]) [%]	Activity (Brassica napus [9]) [%]	LD50 (Brassica napus [10]) [g/ha]	LD90 (Brassica napus [10]) [g/ha]	Activity (Amaranthus retroflexus [11]) [%]	Activity (Brassica napus [12]) [%]
COCCOC(=O)/C(C#N)=C(/C)NCc1ccc(OCc2cnc(Cl)s2)c(OC)c1	42.7	0	15	0	84.6	92.2	56.5	–	–	–	–	–	–
CCOCCOC(=O)/C(C#N)=C(/CC)NCc1ccc(OCc2cnc(Cl)s2)c(OC)c1	71.3	0	5	10	98.3	100	41.9	21	41.2	196.53	862.13	30.9	74.6
COCCOC(=O)/C(C#N)=C(\NCc1ccc(OCc2cnc(Cl)s2)cc1)C(C)C	82	0	0	0	100	91.6	30	98.1	92.8	53.48	146.04	100	100
COCCOC(=O)/C(C#N)=C(/C)NCc1ccc(OCc2cnc(Cl)s2)cc1	65.2	0	0	0	98.5	0	0	–	–	–	–	–	–
CCOCCOC(=O)/C(C#N)=C(/C)NCc1ccc(OCc2cnc(Cl)s2)cc1	56.5	0	0	0	100	32.6	0	–	–	–	–	–	–
CCOCCOC(=O)/C(C#N)=C(\NCc1ccc(Cl)nc1)SC	75.8	0	90.7	35.1	100	100	85	100	100	8.84	133.77	100	100
CC/C(NCc1ccc(OCc2cnc(Cl)s2)c(OC)c1)=C(\C#N)C(=O)OCCOC	70.2	2	0	0	96.6	100	46.8	0	42.9	237.1	817.35	32.9	46.4
CCOCCOC(=O)/C(C#N)=C(/CC)NCc1ccc(OCc2cnc(Cl)s2)cc1	70.2	0	0	0	100	96.3	10	24.5	40	83.96	311.43	84.4	100
CCOCCOC(=O)/C(C#N)=C(\NCc1ccc(OCc2cnc(Cl)s2)cc1)C(C)C	72.5	0	0	0	100	91.6	15	47.2	51.2	73.01	185.4	100	100
CCOCCOC(=O)/C(C#N)=C(\NCc1ccc(OCc2cnc(Cl)s2)c(OC)c1)SC	87.1	10	10	0	86.3	97.4	49.2	–	–	507.9	2548.33	–	–
COCCOC(=O)/C(C#N)=C(\NCc1ccc(OCc2cnc(Cl)s2)c(OC)c1)C(C)C	80.4	42.9	41.7	0	100	100	71.1	73.6	62.4	101.62	251.01	89.8	94.1
CCOCCOC(=O)/C(C#N)=C(\NCc1ccc(OCc2cnc(Cl)s2)cc1)SC	72.5	0	10	0	100	100	0	55.6	95.1	49.14	197.66	91.6	100
COCCOC(=O)/C(C#N)=C(\NCc1ccc(OCc2cnc(Cl)s2)c(OC)c1)SC	61.2	50.6	0	2.7	83.6	89.6	66.1	–	–	–	–	–	–
COCCOC(=O)/C(C#N)=C(\NCc1ccc(OCc2cnc(Cl)s2)cc1)SC	80.9	0	0	0	100	71.3	30	–	–	–	–	–	–
CCOCCOC(=O)/C(C#N)=C(\NCc1ccc(OCc2cnc(Cl)s2)c(OC)c1)C(C)C	93.8	0	0	0	100	100	68.5	59.3	73.5	131.42	484.4	87.8	100
CCOCCOC(=O)/C(C#N)=C(/C)NCc1ccc(OCc2cnc(Cl)s2)c(OC)c1	68.5	30.6	0	5	94.2	89.6	30	–	–	–	–	–	–
CC/C(NCc1ccc(OCc2cnc(Cl)s2)cc1)=C(\C#N)C(=O)OCCOC	59.6	0	0	0	100	0	0	–	–	205.19	640.88	–	–
